How the values were obtained:
[1] = target: T1, Alpha-2C adrenergic receptor (Homo sapiens, UniProt P18825); assay: In vitro binding affinity to human alpha-2C adrenergic receptor
T1 sequence (P18825 whole entry): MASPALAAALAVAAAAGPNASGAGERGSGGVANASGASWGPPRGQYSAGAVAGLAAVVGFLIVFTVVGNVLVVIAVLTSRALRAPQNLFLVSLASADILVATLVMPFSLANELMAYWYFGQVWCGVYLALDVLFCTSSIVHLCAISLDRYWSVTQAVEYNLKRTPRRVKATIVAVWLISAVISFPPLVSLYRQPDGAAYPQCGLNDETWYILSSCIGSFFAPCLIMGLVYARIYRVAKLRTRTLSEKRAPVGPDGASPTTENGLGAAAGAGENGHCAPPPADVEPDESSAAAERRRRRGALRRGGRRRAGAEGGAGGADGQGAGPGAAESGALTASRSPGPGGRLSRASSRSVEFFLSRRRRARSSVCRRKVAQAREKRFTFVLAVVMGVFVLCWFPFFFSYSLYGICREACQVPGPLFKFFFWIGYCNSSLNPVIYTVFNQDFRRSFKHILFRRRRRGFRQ

[2] = target: T2, Alpha-2A adrenergic receptor (Homo sapiens, UniProt P08913); assay: In vitro binding affinity to the human alpha-2A adrenergic receptor
T2 sequence (P08913 whole entry): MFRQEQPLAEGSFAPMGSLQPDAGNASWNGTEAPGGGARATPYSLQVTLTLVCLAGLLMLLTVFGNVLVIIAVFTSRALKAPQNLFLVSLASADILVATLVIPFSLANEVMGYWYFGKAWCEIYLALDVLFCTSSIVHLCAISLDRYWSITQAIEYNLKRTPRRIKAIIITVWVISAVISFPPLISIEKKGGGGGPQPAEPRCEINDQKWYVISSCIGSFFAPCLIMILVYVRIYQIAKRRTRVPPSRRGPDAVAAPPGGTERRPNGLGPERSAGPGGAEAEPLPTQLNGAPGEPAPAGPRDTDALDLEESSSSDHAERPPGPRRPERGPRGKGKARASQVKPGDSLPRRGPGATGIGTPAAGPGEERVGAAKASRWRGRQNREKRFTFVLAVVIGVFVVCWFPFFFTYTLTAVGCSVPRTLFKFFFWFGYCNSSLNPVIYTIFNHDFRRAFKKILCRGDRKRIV

[3] = target: Adrenergic receptor alpha-2 (Rattus norvegicus) (UniProt P22086+P19328+P22909); assay: Inhibition ofmedetomidine-induced loss of righting, which evaluates the ability to block central alpha-2-adrenoceptor; assay type: functional
[4] = target: Sodium-dependent serotonin transporter (Homo sapiens, UniProt P31645); assay: In vitro binding affinity towards human serotonin transporter
Sodium-dependent serotonin transporter, sequence (P31645 whole entry): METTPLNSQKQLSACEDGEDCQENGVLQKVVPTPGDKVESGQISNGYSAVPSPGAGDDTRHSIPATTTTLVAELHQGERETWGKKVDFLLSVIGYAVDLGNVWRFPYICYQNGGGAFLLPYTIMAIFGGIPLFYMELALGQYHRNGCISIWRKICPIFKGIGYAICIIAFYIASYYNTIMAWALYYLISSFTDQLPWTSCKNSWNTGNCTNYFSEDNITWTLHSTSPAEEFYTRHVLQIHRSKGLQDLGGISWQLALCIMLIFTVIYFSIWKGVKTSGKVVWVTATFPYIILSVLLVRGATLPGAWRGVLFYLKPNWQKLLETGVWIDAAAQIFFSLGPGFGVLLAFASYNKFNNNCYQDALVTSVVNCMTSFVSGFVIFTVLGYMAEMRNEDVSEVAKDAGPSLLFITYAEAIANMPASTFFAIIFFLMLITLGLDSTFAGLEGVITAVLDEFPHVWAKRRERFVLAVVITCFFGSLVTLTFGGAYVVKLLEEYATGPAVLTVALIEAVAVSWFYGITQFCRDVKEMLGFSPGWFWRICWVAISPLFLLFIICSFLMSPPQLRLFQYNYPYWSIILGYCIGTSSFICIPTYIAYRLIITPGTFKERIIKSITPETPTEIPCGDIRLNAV

Structure (SMILES)	Ki [1]	Ki [2]	ED50 [3]	Ki [4]
COc1cc2c(cc1OC)C1=NO[C@@H](CN3CCN(C/C(C)=C/c4cccnc4)CC3)[C@@H]1CO2	2.1 nM	22 nM	3.1 mg/kg	63 nM
COc1cc2c(cc1OC)C1=NO[C@@H](CN3CCN(C/C(C)=C/c4ccc(F)cc4)CC3)[C@@H]1CO2	0.7 nM	3.4 nM	10 mg/kg	–
COc1cc2c(cc1OC)C1=NO[C@@H](CN3CCN(C/C=C/c4ccc(Cl)cc4)CC3)[C@@H]1CO2	10 nM	69 nM	10 mg/kg	1.3 nM
COc1cc2c(cc1OC)C1=NO[C@@H](CN3CCN(C/C=C/c4ccccc4)CC3)[C@@H]1CO2	–	–	–	8.3 nM
COc1cc2c(cc1OC)C1=NO[C@@H](CN3CCN(C/C=C\c4ccccc4)CC3)[C@@H]1CO2	–	–	> 10 mg/kg	35 nM
COc1cc2c(cc1OC)C1=NO[C@@H](CN3CCN(C/C=C(\C)c4ccccc4OC)CC3)[C@@H]1CO2	0.9 nM	5.2 nM	> 2.5 mg/kg	51 nM
COc1cc2c(cc1OC)C1=NO[C@@H](CN3CCN(C/C=C/c4ccccc4F)CC3)[C@@H]1CO2	2.8 nM	2.9 nM	2.5 mg/kg	13 nM
COc1cc2c(cc1OC)C1=NO[C@@H](CN3CCN(C/C=C(\C)c4ccc(O)cc4)CC3)[C@@H]1CO2	0.6 nM	1.9 nM	> 2.5 mg/kg	7.6 nM
COc1cc2c(cc1OC)C1=NO[C@@H](CN3CCN(C/C=C(\C)c4ccccc4)CC3)[C@@H]1CO2	–	–	0.3 mg/kg	4.5 nM
COc1cc2c(cc1OC)C1=NO[C@@H](CN3CCN(C/C(C)=C/c4ccco4)CC3)[C@@H]1CO2	0.5 nM	1.7 nM	5 mg/kg	21 nM
COc1ccccc1/C=C(\C)CN1CCN(C[C@@H]2ON=C3c4cc(OC)c(OC)cc4OC[C@H]32)CC1	0.4 nM	1 nM	2 mg/kg	–
COc1cc2c(cc1OC)C1=NO[C@@H](CN3CCN(C/C=C(\C)c4ccc(F)cc4F)CC3)[C@@H]1CO2	0.8 nM	9.3 nM	> 2.5 mg/kg	5.4 nM
COc1cc2c(cc1OC)C1=NO[C@@H](CN3CCN(C/C=C/c4cccc(F)c4)CC3)[C@@H]1CO2	0.7 nM	5.9 nM	5 mg/kg	2.5 nM
COc1cc2c(cc1OC)C1=NO[C@@H](CN3CCN(C/C=C/c4ccc(F)cc4)CC3)[C@@H]1CO2	23 nM	9 nM	4.7 mg/kg	5.6 nM
COc1cc2c(cc1OC)C1=NO[C@@H](CN3CCN(C/C(C)=C/c4cccc(F)c4F)CC3)[C@@H]1CO2	0.7 nM	3 nM	10 mg/kg	–

Further lines, results first:

Ki [1]	Ki [2]	ED50 [3]	Ki [4]	Structure (SMILES)
0.2 nM	1.1 nM	1.25 mg/kg	1.9 nM	COc1cc2c(cc1OC)C1=NO[C@@H](CN3CCN(C/C(C)=C/c4ccsc4)CC3)[C@@H]1CO2
0.2 nM	1.7 nM	0.63 mg/kg	2.7 nM	COc1cc2c(cc1OC)C1=NO[C@@H](CN3CCN(C/C(C)=C/c4cccs4)CC3)[C@@H]1CO2
0.4 nM	0.5 nM	0.16 mg/kg	22 nM	COc1cc2c(cc1OC)C1=NO[C@@H](CN3CCN(C/C=C(\C)c4ccco4)CC3)[C@@H]1CO2
0.2 nM	–	1.3 mg/kg	–	COc1cc2c(cc1OC)C1=NO[C@@H](CN3CCN(C/C(C)=C/c4ccccc4)CC3)[C@@H]1CO2
0.2 nM	1.1 nM	0.63 mg/kg	–	COc1cc2c(cc1OC)C1=NO[C@@H](CN3CCN(C/C(C)=C/c4cccc(F)c4)CC3)[C@@H]1CO2
0.2 nM	0.3 nM	0.63 mg/kg	74 nM	COc1cc2c(cc1OC)C1=NO[C@@H](CN3CCN(C/C=C(\C)c4cccs4)CC3)[C@@H]1CO2
0.3 nM	2.9 nM	1.25 mg/kg	1.3 nM	COc1cc2c(cc1OC)C1=NO[C@@H](CN3CCN(C/C=C(\C)c4ccc(F)cc4)CC3)[C@@H]1CO2
0.2 nM	0.3 nM	2.5 mg/kg	–	COc1cc2c(cc1OC)C1=NO[C@@H](CN3CCN(C/C(C)=C/c4cc(F)ccc4F)CC3)[C@@H]1CO2
0.3 nM	1.4 nM	1.25 mg/kg	4.8 nM	COc1cc2c(cc1OC)C1=NO[C@@H](CN3CCN(C/C=C(\C)c4ccsc4)CC3)[C@@H]1CO2
